Source: patent US6455587B1 (priority 2000, dated 2002)
Read-outs that look alike come from different tables or passages of the source.

Target: T1, recombinant HIV-1 protease (Human immunodeficiency virus type 1 group M subtype B, UniProt P04585)
T1 construct: recombinant HIV-1 protease (final concentration 2.18 nM) purchased from Bachem Bioscience; purchased Bachem Bioscience
Assay: Enzymatic fluorometric (FRET) assay for determining the inhibition constant (Ki) against HIV protease
Format: biochemical
Excerpt: An Enzymatic assay for determining the inhibition constant (Ki) of synthetic compounds targeting the HIV protease may be carried out as follows: This is a fluorometric assay based on the cleavage by protease of a substrate carrying a donor group (EDANS) and an acceptor group (DABCYL) on each side of the cleavage site, interacting together through fluorescence resonance energy transfer (FRET). Cleavage of the substrate by protease stops energy exchange between the two groups, resulting in a time-dependent increase in fluorescence intensity that is linearly related to the extent of substrate hydrolysis.
The enzymatic assay is done at 31° C. in white 96-well fluorescence microplates, in a total volume of 200 μL per well. The apparatus used for analysis is a FL600 fluorescence microplate reader (Biotek Instruments). […] Excitation of the fluorophore is done at 340 nm and emission at 485 nm is recorded continuously during the reaction, allowing determination of the enzyme's initial velocity (v0). At the end of the 4 min incubation, the potential inhibitor at a defined concentration in a volume of 4 μL is added to the reaction, and fluorescence readings are taken for another 4 min, allowing determination of enzyme velocity (vi) in the presence of the inhibitory compound. Several concentrations of the putative inhibitors are tested in the assay. After calculation of v0 and vi, the inhibition constant (Ki) of the compound is determined using the equation of Henderson: [formula]
and [I]=inhibitor concentration, [S]=substrate concentration,
Km=Michaelis-Menten constant, Kiapp=apparent Ki
Graphs are traced and the Ki determined using GraphPad Prism software v. 3.0.

[1] = fluorometric FRET assay, recombinant HIV-1 protease, pH 4.7, 31° C., read-out: Ki
[2] = fluorometric FRET assay, 31° C., pH 4.7, recombinant HIV-1 protease 2.18 nM, substrate 10 μM, read-out: Ki

Row | Compound | Ki [1] | further results
1 | Cc1ccc(S(=O)(=O)NCCC[C@H](NC(=O)OCC2c3ccccc3-c3ccccc32)C(=O)O)cc1 [Compound 149, Nδ-(4-Methylbenzenesulfonyl)-Nα-(9-fluorenylmethoxycarbonyl)-L-ornithine] | 10100 nM | 
2 | NC(=O)C(CCCCNS(=O)(=O)c1ccc(Br)cc1)NC(=O)OCC1c2ccccc2-c2ccccc21 [Compound 20, (2R,2S)-(9-Fluorenylmethoxycarbonylamino)-6-(4-bromobenzenesulfonylamino)-1-hexanamide] | 23000 nM | 
3 | Nα, Nε-diisobutyl-Nα-(4-methylbenzenesulfonyl)-Nε-(3-phenylpropanoyl)-DL-lysine [Compound 159] | 28000 nM | 
4 | CC(C)CN([C@@H](CCCCNC(=O)CCc1cccnc1)C(=O)O)S(=O)(=O)c1ccc(N)cc1 [Compound 195, Nα-Isobutyl-Nα-(4-aminobenzenesulfonyl)-Nε-[3-(3-pyridyl)propionyl]-L-lysine] |  | Ki [2]: > 300 nM
5 | O=C(O)[C@H](CCCCNS(=O)(=O)c1ccc(Br)cc1)NC(=O)C(O)(c1ccccc1)c1ccccc1 [Compound 37, Nα-(Diphenylhydroxyacetyl)-Nε-(4-bromobenzenesulfonyl)-L-lysine] | 54000 nM | 
6 | O=C(NCCCC[C@H](NS(=O)(=O)c1ccc([N+](=O)[O-])cc1)C(=O)O)OCC1c2ccccc2-c2ccccc21 [Compound 103, Nα-(4-Nitrobenzenesulfonyl)-Nε-(9-fluorenylmethoxycarbonyl)-L-lysine] | 3300 nM | 
7 | COc1ccc(OC)c(CCC(=O)NCCCC[C@@H](C(=O)O)N(CC(C)C)S(=O)(=O)c2ccc(N)cc2)c1 [Compound 197, Nα-Isobutyl-Nα-(4-aminobenzenesulfonyl)-Nε-(2,5-dimethoxydihydrocinnamoyl)-L-lysine] |  | Ki [2]: 20.7 nM
8 | O=C(N[C@@H](CCNS(=O)(=O)c1ccc(Br)cc1)C(=O)O)OCC1c2ccccc2-c2ccccc21 [Compound 14, (S)-2-(9-Fluorenylmethoxycarbonylamino)-4-(4-bromobenzenesulfonylamino)-butanoic Acid] | 49000 nM | 
9 | CC(C)CN([C@@H](CCCCNC(=O)OCC1c2ccccc2-c2ccccc21)C(=O)O)S(=O)(=O)c1ccc(C(C)(C)C)cc1 [Compound 10, Nα-Isobutyl-Nα-(4-tert-butylbenzenesulfonyl)-Nε-(9-fluorenylmethoxycarbonyl)-L-lysine] |  | Ki (Ki (nM)): 257 nM
10 | O=C(NCCCC[C@H](NS(=O)(=O)c1ccc(Cl)cc1)C(=O)O)OCC1c2ccccc2-c2ccccc21 [Compound 72, Nα-(4-Chlorobenzenesulfonyl)-Nε-(9-fluorenylmethoxycarbonyl)-L-lysine] | 2380 nM | 
11 | Nα,Nδ-di-(4-Bromobenzenesulfonyl)-Nδ-(4-fluorobenzyl)-L-ornithine [Compound 59] | > 200 nM | 
12 | CC(C)CN([C@@H](CCCCNC(=O)OCC1c2ccccc2-c2ccccc21)C(=O)O)S(=O)(=O)c1cccc2ccccc12 [Compound 8, Nα-Isobutyl-Nα-(1-naphthalenesulfonyl)-Nε-(9-fluorenylmethoxycarbonyl)-L-lysine] | 54.9 nM | 
13 | Cc1ccc(S(=O)(=O)N(CC2CC2)[C@@H](CCCCNC(=O)OCC2c3ccccc3-c3ccccc32)C(=O)O)cc1 [Compound 43, Nα-Cyclopropylmethyl-Nα-(4-methylbenzenesulfonyl)-Nε-(9-fluorenylmethoxycarbonyl)-L-lysine] |  | Ki (Ki (nM)): 3.9 nM
14 | Cc1cc(C)c(S(=O)(=O)NCCCC[C@H](NC(=O)OCC2c3ccccc3-c3ccccc32)C(=O)O)c(C)c1 [Compound 27, Nε-(2,4,6-Trimethylbenzenesulfonyl)-Nα-(9-fluorenylmethoxycarbonyl)-L-lysine] | > 50000 nM | 
15 | O=C(N[C@@H](CCCCNS(=O)(=O)c1cc(Cl)ccc1Cl)C(=O)O)OCC1c2ccccc2-c2ccccc21 [Compound 54, Nε-(2,5-Dichlorobenzenesulfonyl)-Nα-(9-fluorenylmethoxycarbonyl)-L-lysine] | > 6250 nM | 
16 | Cc1ccc(S(=O)(=O)N(CC(C)C)C(CCCCNC(=O)C2c3ccccc3-c3ccccc32)C(=O)O)cc1 (stereo not drawn) [Compound 83] | 105 nM | 
17 | O=C(NCCCC[C@H](NS(=O)(=O)c1cccc2ccccc12)C(=O)O)OCC1c2ccccc2-c2ccccc21 [Compound 102, Nα-(1-Naphthalenesulfonyl)-Nε-(9-fluorenylmethoxycarbonyl)-L-lysine] | 2320 nM | 
18 | COc1ccc(C=CC(=O)NCCCC[C@@H](C(=O)O)N(CC(C)C)S(=O)(=O)c2ccc([N+](=O)[O-])cc2)cc1OC [Compound 193, Nα-Isobutyl-Nα-(4-nitrobenzenesulfonyl)-Nε-(3,4-dimethoxycinnamoyl)-L-lysine] |  | Ki [2]: > 75 nM

Row | Compound | Ki [1] | further results
19 | CC(C)CN([C@@H](CCCCNC(=O)/C=C/c1cccnc1)C(=O)O)S(=O)(=O)c1ccc([N+](=O)[O-])cc1 [Compound 164, Nα-Isobutyl-Nα-(4-nitrobenzenesulfonyl)-Nε-(trans-3-(3-pyridyl)acryloyl)-L-lysine] | > 300 nM | 
20 | CC(C)CN([C@@H](CCCCNC(=O)CCCc1ccccc1)C(=O)O)S(=O)(=O)c1ccc(N)cc1 [Compound 121, Nα-Isobutyl-Nα-(4-aminobenzenesulfonyl)-Nε-(4-phenylbutanoyl)-L-lysine] | > 300 nM | 
21 | CC(C)CN(C(CCCCNC(=O)OCC1c2ccccc2-c2ccccc21)C(=O)O)S(=O)(=O)c1ccc(Cl)cc1 (racemic) [Compound 1, Nα-Isobutyl-Nα-(4-chlorobenzenesulfonyl)-Nε-(9-fluorenylmethoxycarbonyl)-DL-lysine] | 20.5 nM | 
22 | CC(C)CN(C(=O)c1ccccc1)[C@@H](CCCCNC(=O)OCC1c2ccccc2-c2ccccc21)C(=O)O [Compound 46, Nα-Isobutyl-Nα-benzoyl-Nε-(9-fluorenylmethoxycarbonyl)-L-lysine] | > 100 nM | 
23 | Nc1ccc(S(=O)(=O)NCCCC[C@H](NC(=O)OCC2c3ccccc3-c3ccccc32)C(=O)O)cc1 [Compound 52, Nε-(4-Aminobenzenesulfonyl)-Nα-(9-fluorenylmethoxycarbonyl)-L-lysine] | 6800 nM | 
24 | CC(C)CN([C@@H](CCCCNC(=O)C1c2ccccc2Oc2ccccc21)C(=O)O)S(=O)(=O)c1ccc([N+](=O)[O-])cc1 [Compound 96, Nα-Isobutyl-Nα-(4-nitrobenzenesulfonyl)-Nε-(9-xanthenecarbonyl)-L-lysine] | 43.9 nM | 
25 | O=C(O)[C@H](CCCNS(=O)(=O)c1ccc(Br)cc1)NS(=O)(=O)c1ccc(Br)cc1 [Compound 57, Nα,Nδ-di-(4-Bromobenzenesulfonyl)-L-ornithine] | 42400 nM | 
26 | CC(C)CN(C(CCCCNC(=O)OCc1ccccc1)C(=O)O)S(=O)(=O)c1ccc(Br)cc1 (stereo not drawn) [Compound 67] |  | Ki (Ki (nM)): > 100 nM
27 | CC(C)CN([C@@H](CCCCNC(=O)CCc1ccccc1)C(=O)O)S(=O)(=O)c1ccc([N+](=O)[O-])cc1 [Compound 94, Nα-Isobutyl-Nα-(4-nitrobenzenesulfonyl)-Nε-dihydrocinnamoyl-L-lysine] | 33.9 nM | 
28 | Nα-Isobutyl-Nα-(4-nitrobenzenesulfonyl)-Nε-(4-nitrocinnamoyl)-L-lysine [Compound 111] | 33 nM | 
29 | Cc1ccc(S(=O)(=O)N(CC(C)C)[C@@H](CCCCNC(=O)CCc2ccccc2)C(=O)O)cc1 [Compound 91] | 8 nM | 
30 | COC(=O)[C@H](CCCCNS(=O)(=O)c1ccc(Br)cc1)NC(=O)OCC1c2ccccc2-c2ccccc21 [Compound 15, Nα-(9-Fluorenylmethoxycarbonyl)-Nε-(4-bromobenzenesulfonyl)-L-lysine Methyl Ester] | 47000 nM | 
31 | Cc1ccc(S(=O)(=O)N(CC(C)C)C(CCCCNC(=O)OCC2c3ccccc3-c3ccccc32)C(=O)NO)cc1 [Compound 141, (2R,2S)-N-Isobutyl-N-(4-methylbenzenesulfonylamino)-6-(9-fluorenylmethoxycarboxylamino)-1-hydroxylhexamide] | 245 nM | 
32 | COc1ccccc1CCC(=O)NCCCC[C@@H](C(=O)O)N(CC(C)C)S(=O)(=O)c1ccc(N)cc1 [Compound 157, Nα-Isobutyl-Nα-(4-aminobenzenesulfonyl)-Nε-(2-methoxydihydrocinnamoyl)-L-lysine] | 18.9 nM | 
33 | COc1ccc(C=CC(=O)NCCCC[C@@H](C(=O)O)N(CC(C)C)S(=O)(=O)c2ccc([N+](=O)[O-])cc2)c(OC)c1 [Compound 191, Nα-Isobutyl-Nα-(4-nitrobenzenesulfonyl)-Nε-(2,4-dimethoxycinnamoyl)-L-lysine] |  | Ki [2]: > 75 nM
34 | COc1cccc(C=CC(=O)NCCCC[C@@H](C(=O)O)N(CC(C)C)S(=O)(=O)c2ccc([N+](=O)[O-])cc2)c1 [Compound 162, Nα-Isobutyl-Nα-(4-nitrobenzenesulfonyl)-Nε-(3-methoxycinnamoyl)-L-lysine] | > 300 nM | 
35 | O=C(O)[C@H](CCCN(Cc1ccc(F)cc1)S(=O)(=O)c1ccc(Br)cc1)NS(=O)(=O)c1ccc(Br)cc1 [Compound 59, Nα,Nδ-di-(4-Bromobenzenesulfonyl)-Nδ-(4-fluorobenzyl)-L-ornithine] | > 34900 nM | 
36 | COc1cc(C=CC(=O)NCCCC[C@@H](C(=O)O)N(CC(C)C)S(=O)(=O)c2ccc([N+](=O)[O-])cc2)cc(OC)c1 [Compound 189, Nα-Isobutyl-Nα-(4-nitrobenzenesulfonyl)-Nε-(3,5-dimethoxycinnamoyl)-L-lysine] | 108 nM | 
